We go through 13 compounds from ChEMBL document CHEMBL1134016, “Different antagonist binding properties of human and rat histamine H3 receptors” (Bioorg Med Chem Lett, 2001).

The target in assay [1] is T1, Histamine H3 receptor (Homo sapiens, UniProt Q9Y5N1). The assay is described as follows: biochemical. In kind it is cell-based, CHO-K1.
Description: Inhibition of [125I]iodoproxyfan binding to human histamine H3 receptor of CHO-K1 cells
Assay [2] deals with T2, Histamine H3 receptor (Rattus norvegicus, UniProt Q9QYN8). Nature of the assay: biochemical. In kind it is cell-based, CHO-K1.
Description: Inhibition of [125I]iodoproxyfan from rat histamine H3 receptor expressed in CHO-K1 cells
The target in assay [3] is T1, Histamine H3 receptor. Nature of the assay: Ratio of binding affinity of rat histamine H3 receptor to that of human histamine H3 receptor; 1:3.
Assay [4] concerns the target T2, Histamine H3 receptor. The assay is described as follows: Binding affinity to rat Histamine H3 receptor in CHO-K1 cells using [125I]iodoproxyfan as radioligand. It counts as cell-based.
Assay [5] deals with T1, Histamine H3 receptor. The assay is described as follows: Ratio of binding affinity of rat histamine H3 receptor to that of human histamine H3 receptor;1:10.
Assay [6] addresses T1, Histamine H3 receptor. The assay is described as follows: Ratio of binding affinity of rat histamine H3 receptor to that of human histamine H3 receptor;1:6.
Assay [7] has as its target T1, Histamine H3 receptor. Nature of the assay: Ratio of binding affinity of rat histamine H3 receptor to that of human histamine H3 receptor; 1:12.

T1 sequence (Q9Y5N1 whole entry): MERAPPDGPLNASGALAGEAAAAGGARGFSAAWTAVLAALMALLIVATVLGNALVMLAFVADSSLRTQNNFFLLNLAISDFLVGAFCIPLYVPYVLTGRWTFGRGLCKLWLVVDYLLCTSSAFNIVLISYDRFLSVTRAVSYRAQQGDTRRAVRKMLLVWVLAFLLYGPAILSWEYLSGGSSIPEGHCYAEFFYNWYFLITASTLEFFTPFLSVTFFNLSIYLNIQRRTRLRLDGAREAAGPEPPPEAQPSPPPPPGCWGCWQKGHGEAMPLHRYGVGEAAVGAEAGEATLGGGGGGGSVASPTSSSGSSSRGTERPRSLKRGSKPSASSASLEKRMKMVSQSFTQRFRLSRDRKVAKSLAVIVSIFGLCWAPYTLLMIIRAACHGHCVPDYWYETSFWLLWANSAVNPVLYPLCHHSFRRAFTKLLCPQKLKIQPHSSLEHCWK
T2 sequence (Q9QYN8 whole entry): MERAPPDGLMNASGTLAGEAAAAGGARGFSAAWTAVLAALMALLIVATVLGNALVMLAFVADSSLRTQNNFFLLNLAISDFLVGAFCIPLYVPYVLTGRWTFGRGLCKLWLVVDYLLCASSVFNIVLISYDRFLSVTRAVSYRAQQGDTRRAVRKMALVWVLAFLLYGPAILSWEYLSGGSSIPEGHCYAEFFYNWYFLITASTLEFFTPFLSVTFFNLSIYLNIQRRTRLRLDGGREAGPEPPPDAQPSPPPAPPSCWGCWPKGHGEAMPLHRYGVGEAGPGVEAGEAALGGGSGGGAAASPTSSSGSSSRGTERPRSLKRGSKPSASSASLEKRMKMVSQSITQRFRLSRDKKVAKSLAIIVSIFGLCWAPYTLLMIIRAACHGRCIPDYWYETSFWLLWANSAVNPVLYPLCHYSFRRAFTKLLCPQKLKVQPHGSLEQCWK

Regarding `CC(=O)c1ccc(SCCc2cnc[nH]2)cc1`, the values for the Ki on Histamine H3 receptor [1] and at Histamine H3 receptor [2] were 0.0011 µM and 0.00011 µM, respectively.

In the case of `Ic1ccc(COCCCc2c[nH]cn2)cc1` [IODOPROXYFAN], the results for the Ki at Histamine H3 receptor [1] and at Histamine H3 receptor [2] were 0.041 µM and 0.071 µM, respectively.

`O=C(c1ccc(OCCCc2cnc[nH]2)cc1)C1CC1` [CIPROXIFAN]: at Histamine H3 receptor [2], the Ki was determined as 0.0039 µM.

As for `CC(=O)c1ccc(OCCCc2c[nH]cn2)cc1`, the Ki on Histamine H3 receptor [1] amounted to 0.087 µM; at Histamine H3 receptor [2], 0.029 µM. Moreover, the Ratio at Histamine H3 receptor [3] turned out to be 3.

Take `S=C(NC1CCCCC1)N1CCC(c2cnc[nH]2)CC1` [THIOPERAMIDE]: the affinity at Histamine H3 receptor [4], expressed as Ki, was 0.0065 µM.

With `CC(=O)c1ccc(SCCCc2c[nH]cn2)cc1`, the inhibitory constant (Ki) on Histamine H3 receptor [1] turned out to be 0.018 µM; at Histamine H3 receptor [2], 0.044 µM.

Turning to `CC(=O)c1ccc(OCCc2cnc[nH]2)cc1`, the figures for the inhibitory constant (Ki) at Histamine H3 receptor [1] and on Histamine H3 receptor [2] were 0.042 µM and 0.0036 µM, respectively.

Take `CC(=O)c1ccc(SCCc2c[nH]cn2)cc1`: at Histamine H3 receptor [5], the Ratio was found to be 10.

Consider `CC(=O)c1ccc(OCCCCc2cnc[nH]2)cc1`, for which the inhibition constant Ki at Histamine H3 receptor [1] stood at 0.019 µM; at Histamine H3 receptor [2], 0.036 µM.

For the compound `c1ccc(OCCCc2c[nH]cn2)cc1`, on Histamine H3 receptor [1], the Ki came out at 0.027 µM. In other words, the double-digit nanomolar range.

For `c1ccc(COCCCc2c[nH]cn2)cc1` [PROXYFAN], the inhibitory constant (Ki) stood at 0.0027 µM at Histamine H3 receptor [1] and 0.0029 µM at Histamine H3 receptor [2].

On to `COc1ccc(OCCCc2c[nH]cn2)cc1`, for which the Ki turned out to be 0.047 µM on Histamine H3 receptor [1] and 0.0079 µM at Histamine H3 receptor [2]. The Ratio on Histamine H3 receptor [6] was 6.

On to `CC(=O)c1ccc(OCCc2c[nH]cn2)cc1`, for which the Ratio at Histamine H3 receptor [7] turned out to be 12.
